# Source: patent US20240284907A1, “NOVEL DERIVATIVES OF NON-CODED AMINO ACIDS AND THEIR USE AS HERBICIDES” (FortePhest LTD., priority 2021, published 2024)
# System: Romaine lettuce (Lactuca sativa L.) plants
# Test: Post-emergence herbicidal activity on potted Romaine lettuce plants (soil or foliar application)
# Assay type: in vivo
# Conditions: foliar application, lettuce at 2 to 3 leaves, two weeks after treatment
# Method: The tests were performed on Romaine lettuce (Lactuca sativa L.) plants at the stage 2 to 3 leaves. The plants were grown in mini-pots packed with soil, dimensions 2×2×5 cm, one plant per mini-pot. Test compounds were dissolved in 0.1% aqueous solution water solution of Silwet adjuvant to final concentrations ranging from 0 (Control) to 0.0001%. The test compounds were applied on soil (1 ml per pot) or foliar with airbrush (0.1 ml per pot). Each concentration was tested on 20 plants. Two weeks after the treatment the herbicidal effects of the respective test material were visually evaluated (aboveground part and roots. Then the aboveground part of the plants was neatly cut and weighed (wet weight) to assess the growth inhibition caused by the test compound. The growth inhibition (GI) was calculated as following: […]
# Where Mt and Mc are median wet weight of treated and control plants, respectively. In the context of the invention, the herbicidal effect was assessed by concentration of the compound causing more than 85% of Growth Inhibition (GI) or irreversible damage of the plants (Table 3). Herbicidal activity of selected DHAAs is summarized in Table 4 (soil application) and Table 5 (Foliar application).
row,Compound,Score (test material causing more than 85% of Growth Inhibition or irreversible plant damage)
1,"O=C(O)C(F)(F)c1csc(C(F)(F)F)n1 [compound 5679, 2,2-difluoro-2-[2-(trifluoromethyl)-1,3-thiazol-4-yl]acetic acid]",strong (0.01 to 0.05)

# Same assay, conditions: soil application, lettuce at 2 to 3 leaves, two weeks after treatment
row,Compound,Score (test material causing more than 85% of Growth Inhibition or irreversible plant damage)
1,"O=C(O)C(F)(F)c1csc(C(F)(F)F)n1 [compound 5679, 2,2-difluoro-2-[2-(trifluoromethyl)-1,3-thiazol-4-yl]acetic acid]",strong (0.01 to 0.05)
2,"ethyl 2-(6-bromopyridin-2-yl)-2,2-difluoroacetate [compound 6640]",moderate (0.5)
3,"CCOC(=O)Cc1cccc(Br)n1 [compound 6635, ethyl 2-(6-bromopyridin-2-yl)acetate]",moderate (0.5)
4,"OCC(F)(F)c1cccc(Br)n1 [compound 6643, 2-(6-bromopyridin-2-yl)-2,2-difluoroethan-1-ol]",moderate (0.5)
5,"CCOC(=O)Cc1cc(Cl)sc1Cl [compound 5668, ethyl (2,5-dichlorothiophen-3-yl)acetate]",strong (0.01 to 0.05)
6,"2,2-difluoro-2-[6-(trifluoromethyl)pyridin-2-yl]acetic acid [compound 6651]",moderate (0.5)

# System: Seeds of Lettuce R. (Super-Jericho)
# Test: Filter paper bioassay with lettuce seeds: germination and early plant development, Minimal Effective Concentration (MEC)
# Assay type: in vivo
# Conditions: lettuce seeds on filter paper, 0 to 1 mmol/l, visually assessed after 6 days
# How it was run: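 Visual scoring on day 6 of radicle and shoot growth gives the MEC, the lowest dose deviating from control (no germination or malformation). Seeds (lettuce Super-Jericho, 10 per plate) sat on filter paper with 0–1 mmol/l aqueous compound, 48 h dark then 4 days 6/18 dark/light, in at least two repeats.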
row,Compound,"Score (activity score of Minimal Effective Concentration, MEC)"
1,"CCOC(=O)C(F)(F)c1cc(Cl)sc1Cl [compound 5643, ethyl(2,5-dichlorothiophen-3-yl)(difluoro)acetate]",Moderate (0.1 mM)
2,"O=C(O)C(F)(F)c1csc(C(F)(F)F)n1 [compound 5679, 2,2-difluoro-2-[2-(trifluoromethyl)-1,3-thiazol-4-yl]acetic acid]",very strong
3,"ethyl 2-(6-bromopyridin-2-yl)-2,2-difluoroacetate [compound 6640]",Strong (0.01 mM)
4,"CCOC(=O)Cc1cccc(Br)n1 [compound 6635, ethyl 2-(6-bromopyridin-2-yl)acetate]",Moderate (0.1 mM)
5,"OCC(F)(F)c1cccc(Br)n1 [compound 6643, 2-(6-bromopyridin-2-yl)-2,2-difluoroethan-1-ol]",Moderate (0.1 mM)
6,"2,2-difluoro-2-[6-(trifluoromethyl)pyridin-2-yl]acetic acid [compound 6651]",Strong (0.01 mM)

# System: Sinapis
# Test: Herbicidal effect on potted weeds, plant development score
# Assay type: in vivo
# Conditions: post-emergence, soil application 1 mg/pot; scale 0 (dead plants) to 5 (healthy, as Control)
# Method: (§1) Weed seeds were sawn in 0.3-liter pots, containing medium-heavy clay-loam soil from organic fields (55% clay, 23% silt, 20% sand, 2% organic matter, pH 7.1). The experiment was conducted in a completely randomized design. Each treatment was replicated 3 times (3 pots). Each compound was typically tested on crops (Corn, Wheat, Soy, Cotton, Oat, Chickpea) and weeds (Amaranth, Chenopodium, Lentils, Sinapis, Silybum).
# (§2) The herbicides were applied at dose from 0 (control) to 5 mg/pot. The treatment was performed at the day of sawn (pre-emergence treatment). Then the pots were transferred to a mesh house 24 hours after herbicide application and were sprinkler irrigated to field capacity of the soil. Alternatively, the herbicides were applied on grown plants at stage 2-3 true leaves (post-emergence treatment).
# (§3) The plants were grown in the mesh house during the entire experiment. Plant development at 6, 12, 19, 26 and 32 days after application (DAA) were evaluated on a scale of 0 to 5, in which 0 represents dead plants and 5 represents healthy plants similar or not different from Control. In the context of the invention, the herbicidal effect was expressed as a score calculated as an average of assessments of plants vigor, height, and leaf color.
row,Compound,"Average Herbicidal Effect, Sinapis"
1,"CCOC(=O)C(F)(F)c1cc(Cl)sc1Cl [compound 5643, ethyl(2,5-dichlorothiophen-3-yl)(difluoro)acetate]",5.0
2,"O=C(O)C(F)(F)c1csc(C(F)(F)F)n1 [compound 5679, 2,2-difluoro-2-[2-(trifluoromethyl)-1,3-thiazol-4-yl]acetic acid]",1.0
3,"ethyl 2-(6-bromopyridin-2-yl)-2,2-difluoroacetate [compound 6640]",3.0
4,"CCOC(=O)Cc1cccc(Br)n1 [compound 6635, ethyl 2-(6-bromopyridin-2-yl)acetate]",2.0
5,"OCC(F)(F)c1cccc(Br)n1 [compound 6643, 2-(6-bromopyridin-2-yl)-2,2-difluoroethan-1-ol]",4.0
6,"2,2-difluoro-2-[6-(trifluoromethyl)pyridin-2-yl]acetic acid [compound 6651]",2.0

# Same assay, conditions: pre-emergence, soil application 1 mg/pot; scale 0 (dead plants) to 5 (healthy, as Control)
row,Compound,"Average Herbicidal Effect, Sinapis"
1,"CCOC(=O)C(F)(F)c1cc(Cl)sc1Cl [compound 5643, ethyl(2,5-dichlorothiophen-3-yl)(difluoro)acetate]",5.0
2,"O=C(O)C(F)(F)c1csc(C(F)(F)F)n1 [compound 5679, 2,2-difluoro-2-[2-(trifluoromethyl)-1,3-thiazol-4-yl]acetic acid]",2.0
3,"CCOC(=O)Cc1cccc(Br)n1 [compound 6635, ethyl 2-(6-bromopyridin-2-yl)acetate]",3.0
4,"OCC(F)(F)c1cccc(Br)n1 [compound 6643, 2-(6-bromopyridin-2-yl)-2,2-difluoroethan-1-ol]",4.0
5,"CCOC(=O)Cc1cc(Cl)sc1Cl [compound 5668, ethyl (2,5-dichlorothiophen-3-yl)acetate]",5.0

# System: Silybum
# Test: as above
# Assay type: in vivo
# Conditions: post-emergence, soil application 1 mg/pot; scale 0 (dead plants) to 5 (healthy, as Control)
# Method: as §1, §2, §3
row,Compound,"Average Herbicidal Effect, Silybum"
1,"CCOC(=O)C(F)(F)c1cc(Cl)sc1Cl [compound 5643, ethyl(2,5-dichlorothiophen-3-yl)(difluoro)acetate]",3.0
2,"O=C(O)C(F)(F)c1csc(C(F)(F)F)n1 [compound 5679, 2,2-difluoro-2-[2-(trifluoromethyl)-1,3-thiazol-4-yl]acetic acid]",2.0
3,"ethyl 2-(6-bromopyridin-2-yl)-2,2-difluoroacetate [compound 6640]",3.0
4,"CCOC(=O)Cc1cccc(Br)n1 [compound 6635, ethyl 2-(6-bromopyridin-2-yl)acetate]",2.5
5,"OCC(F)(F)c1cccc(Br)n1 [compound 6643, 2-(6-bromopyridin-2-yl)-2,2-difluoroethan-1-ol]",2.0
6,"2,2-difluoro-2-[6-(trifluoromethyl)pyridin-2-yl]acetic acid [compound 6651]",2.0

# Same assay, conditions: pre-emergence, soil application 1 mg/pot; scale 0 (dead plants) to 5 (healthy, as Control)
row,Compound,"Average Herbicidal Effect, Silybum"
1,"CCOC(=O)C(F)(F)c1cc(Cl)sc1Cl [compound 5643, ethyl(2,5-dichlorothiophen-3-yl)(difluoro)acetate]",0.0
2,"O=C(O)C(F)(F)c1csc(C(F)(F)F)n1 [compound 5679, 2,2-difluoro-2-[2-(trifluoromethyl)-1,3-thiazol-4-yl]acetic acid]",2.0
3,"CCOC(=O)Cc1cccc(Br)n1 [compound 6635, ethyl 2-(6-bromopyridin-2-yl)acetate]",3.0
4,"OCC(F)(F)c1cccc(Br)n1 [compound 6643, 2-(6-bromopyridin-2-yl)-2,2-difluoroethan-1-ol]",2.5
5,"CCOC(=O)Cc1cc(Cl)sc1Cl [compound 5668, ethyl (2,5-dichlorothiophen-3-yl)acetate]",5.0
6,"2,2-difluoro-2-[6-(trifluoromethyl)pyridin-2-yl]acetic acid [compound 6651]",4.0

# System: Chenopodium
# Test: as above
# Assay type: in vivo
# Conditions: post-emergence, soil application 1 mg/pot; scale 0 (dead plants) to 5 (healthy, as Control)
# Method: as §1, §2, §3
row,Compound,"Average Herbicidal Effect, Chenopodium"
1,"CCOC(=O)C(F)(F)c1cc(Cl)sc1Cl [compound 5643, ethyl(2,5-dichlorothiophen-3-yl)(difluoro)acetate]",5.0
2,"O=C(O)C(F)(F)c1csc(C(F)(F)F)n1 [compound 5679, 2,2-difluoro-2-[2-(trifluoromethyl)-1,3-thiazol-4-yl]acetic acid]",1.0
3,"ethyl 2-(6-bromopyridin-2-yl)-2,2-difluoroacetate [compound 6640]",1.0
4,"CCOC(=O)Cc1cccc(Br)n1 [compound 6635, ethyl 2-(6-bromopyridin-2-yl)acetate]",3.0
5,"OCC(F)(F)c1cccc(Br)n1 [compound 6643, 2-(6-bromopyridin-2-yl)-2,2-difluoroethan-1-ol]",4.0
6,"2,2-difluoro-2-[6-(trifluoromethyl)pyridin-2-yl]acetic acid [compound 6651]",0.5

# Same assay, conditions: pre-emergence, soil application 1 mg/pot; scale 0 (dead plants) to 5 (healthy, as Control)
row,Compound,"Average Herbicidal Effect, Chenopodium"
1,"CCOC(=O)C(F)(F)c1cc(Cl)sc1Cl [compound 5643, ethyl(2,5-dichlorothiophen-3-yl)(difluoro)acetate]",4.0
2,"O=C(O)C(F)(F)c1csc(C(F)(F)F)n1 [compound 5679, 2,2-difluoro-2-[2-(trifluoromethyl)-1,3-thiazol-4-yl]acetic acid]",1.5
3,"CCOC(=O)Cc1cccc(Br)n1 [compound 6635, ethyl 2-(6-bromopyridin-2-yl)acetate]",0.5
4,"OCC(F)(F)c1cccc(Br)n1 [compound 6643, 2-(6-bromopyridin-2-yl)-2,2-difluoroethan-1-ol]",3.0
5,"CCOC(=O)Cc1cc(Cl)sc1Cl [compound 5668, ethyl (2,5-dichlorothiophen-3-yl)acetate]",2.0
6,"2,2-difluoro-2-[6-(trifluoromethyl)pyridin-2-yl]acetic acid [compound 6651]",1.5

# System: Lentils
# Test: as above
# Assay type: in vivo
# Conditions: post-emergence, soil application 1 mg/pot; scale 0 (dead plants) to 5 (healthy, as Control)
# Method: as §1, §2, §3
row,Compound,"Average Herbicidal Effect, Lentils"
1,"CCOC(=O)C(F)(F)c1cc(Cl)sc1Cl [compound 5643, ethyl(2,5-dichlorothiophen-3-yl)(difluoro)acetate]",4.0
2,"O=C(O)C(F)(F)c1csc(C(F)(F)F)n1 [compound 5679, 2,2-difluoro-2-[2-(trifluoromethyl)-1,3-thiazol-4-yl]acetic acid]",0.5
3,"ethyl 2-(6-bromopyridin-2-yl)-2,2-difluoroacetate [compound 6640]",2.0
4,"CCOC(=O)Cc1cccc(Br)n1 [compound 6635, ethyl 2-(6-bromopyridin-2-yl)acetate]",0.0
5,"OCC(F)(F)c1cccc(Br)n1 [compound 6643, 2-(6-bromopyridin-2-yl)-2,2-difluoroethan-1-ol]",0.0

# Same assay, conditions: pre-emergence, soil application 1 mg/pot; scale 0 (dead plants) to 5 (healthy, as Control)
row,Compound,"Average Herbicidal Effect, Lentils"
1,"CCOC(=O)C(F)(F)c1cc(Cl)sc1Cl [compound 5643, ethyl(2,5-dichlorothiophen-3-yl)(difluoro)acetate]",5.0
2,"O=C(O)C(F)(F)c1csc(C(F)(F)F)n1 [compound 5679, 2,2-difluoro-2-[2-(trifluoromethyl)-1,3-thiazol-4-yl]acetic acid]",0.0
3,"CCOC(=O)Cc1cccc(Br)n1 [compound 6635, ethyl 2-(6-bromopyridin-2-yl)acetate]",0.0
4,"OCC(F)(F)c1cccc(Br)n1 [compound 6643, 2-(6-bromopyridin-2-yl)-2,2-difluoroethan-1-ol]",0.0
5,"CCOC(=O)Cc1cc(Cl)sc1Cl [compound 5668, ethyl (2,5-dichlorothiophen-3-yl)acetate]",4.0
6,"2,2-difluoro-2-[6-(trifluoromethyl)pyridin-2-yl]acetic acid [compound 6651]",0.0

# System: Amaranth
# Test: as above
# Assay type: in vivo
# Conditions: post-emergence, soil application 1 mg/pot; scale 0 (dead plants) to 5 (healthy, as Control)
# Method: as §1, §2, §3
row,Compound,"Average Herbicidal Effect, Amaranth"
1,"CCOC(=O)C(F)(F)c1cc(Cl)sc1Cl [compound 5643, ethyl(2,5-dichlorothiophen-3-yl)(difluoro)acetate]",4.0
2,"O=C(O)C(F)(F)c1csc(C(F)(F)F)n1 [compound 5679, 2,2-difluoro-2-[2-(trifluoromethyl)-1,3-thiazol-4-yl]acetic acid]",1.0
3,"ethyl 2-(6-bromopyridin-2-yl)-2,2-difluoroacetate [compound 6640]",4.0
4,"CCOC(=O)Cc1cccc(Br)n1 [compound 6635, ethyl 2-(6-bromopyridin-2-yl)acetate]",4.0
5,"OCC(F)(F)c1cccc(Br)n1 [compound 6643, 2-(6-bromopyridin-2-yl)-2,2-difluoroethan-1-ol]",1.0
6,"2,2-difluoro-2-[6-(trifluoromethyl)pyridin-2-yl]acetic acid [compound 6651]",0.5

# Same assay, conditions: pre-emergence, soil application 1 mg/pot; scale 0 (dead plants) to 5 (healthy, as Control)
row,Compound,"Average Herbicidal Effect, Amaranth"
1,"CCOC(=O)C(F)(F)c1cc(Cl)sc1Cl [compound 5643, ethyl(2,5-dichlorothiophen-3-yl)(difluoro)acetate]",0.5
2,"O=C(O)C(F)(F)c1csc(C(F)(F)F)n1 [compound 5679, 2,2-difluoro-2-[2-(trifluoromethyl)-1,3-thiazol-4-yl]acetic acid]",4.5
3,"CCOC(=O)Cc1cccc(Br)n1 [compound 6635, ethyl 2-(6-bromopyridin-2-yl)acetate]",4.0
4,"OCC(F)(F)c1cccc(Br)n1 [compound 6643, 2-(6-bromopyridin-2-yl)-2,2-difluoroethan-1-ol]",0.0
5,"CCOC(=O)Cc1cc(Cl)sc1Cl [compound 5668, ethyl (2,5-dichlorothiophen-3-yl)acetate]",3.0
6,"2,2-difluoro-2-[6-(trifluoromethyl)pyridin-2-yl]acetic acid [compound 6651]",5.0
